Columns and labels:
mICE [1] = target: T1, mICE (Mus musculus, UniProt P29452); assay: Fluorescence enzyme assay, IC50 determination, ICE; format: biochemical; settings: recombinant enzyme, substrate Acetyl-Tyr-Val-Ala-Asp-AMC, 30 min preincubation, room temperature
T1 sequence (P29452 123-296 limits assumed): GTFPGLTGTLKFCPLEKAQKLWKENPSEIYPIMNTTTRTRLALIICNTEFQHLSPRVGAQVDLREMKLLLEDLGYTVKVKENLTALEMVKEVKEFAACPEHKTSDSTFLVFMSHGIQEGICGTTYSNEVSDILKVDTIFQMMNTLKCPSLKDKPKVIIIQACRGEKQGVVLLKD
T1 sequence (P29452 315-402 limits assumed): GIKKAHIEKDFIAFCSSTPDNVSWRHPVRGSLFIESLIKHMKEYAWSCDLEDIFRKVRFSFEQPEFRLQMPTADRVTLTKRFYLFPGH
Protocol: (§1) Fluorescence enzyme assays detecting the activity of the compounds of Formula 1 utilizing the recombinant ICE and CPP32 enzymes were performed essentially according to Thornberry et al. (Nature, 356:768:774 (1992)) and Nicholson et al. (Nature, 376:37-43 (1995)) respectively, (herein incorporated by reference) in 96 well microtiter plates. The substrate is Acetyl-Tyr-Val-Ala-Asp-amino-4-methylcoumarin (AMC) for the ICE assay and Acetyl-Asp-Glu-Val-Asp-amino-4-methylcoumarin for the CPP32, Mch2, Mch3 and Mch5 assays. Enzyme reactions were run in ICE buffer (25 mM HEPES, 1 mM EDTA, 0.1% CHAPS, 10% sucrose, pH 7.5) containing 2 mM DTT at room temperature in duplicate. The assays were performed by mixing the following components:
(§2) 50 μL ICE, Mch2, Mch5, CPP32 (18.8, 38, 8.1 and 0.153 nM concentrations, respectively) or Mch3 (1 unit) enzyme in ICE buffer containing either 8.0 (ICE, Mch2, Mch3, CPP32) or 20 (Mch5) mM DTT;
(§3) 50 μL compound of Formula 1 or ICE buffer (control); and
(§4) 100 μL of 20 μM substrate.
(§5) The enzyme and the compound of Formula 1 to be assayed were allowed to preincubate in the microtitre plate wells for 30 minutes at room temperature prior to the addition of substrate to initiate the reaction. Fluorescent AMC product formation was monitored for one hour at room temperature by measuring the fluorescence emission at 460 nm using an excitation wavelength of 360 nm. The fluorescence change in duplicate (control) wells were averaged and the mean values were plotted as a function of inhibitor concentration to determine the inhibitor concentration producing 50% inhibition (IC50).
(§6) The reference compound for this assay was Cbz-ValAlaAsp-H and the values are denoted in Table 1 as “Reference”.

CPP32 [2] = target: T2, CPP32 (Homo sapiens, UniProt P42574); assay: Fluorescence enzyme assay, IC50 determination, CPP32; format: biochemical; settings: recombinant enzyme, substrate Acetyl-Asp-Glu-Val-Asp-AMC, 30 min preincubation, room temperature
T2 sequence (P42574 29-175 limits assumed): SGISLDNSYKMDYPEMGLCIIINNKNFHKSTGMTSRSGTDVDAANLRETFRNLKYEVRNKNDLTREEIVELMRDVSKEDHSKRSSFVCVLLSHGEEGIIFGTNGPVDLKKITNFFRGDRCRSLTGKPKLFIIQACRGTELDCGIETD
T2 sequence (P42574 176-277 limits assumed): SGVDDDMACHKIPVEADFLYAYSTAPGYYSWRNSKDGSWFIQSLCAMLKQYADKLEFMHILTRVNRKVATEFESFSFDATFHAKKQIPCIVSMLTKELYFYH
Protocol: as §1, §2, §3, §4, §5, §6

MCH-2 [3] = target: T3, MCH-2 (Homo sapiens, UniProt P55212); assay: Fluorescence enzyme assay, IC50 determination, Mch2; format: biochemical; settings: substrate Acetyl-Asp-Glu-Val-Asp-AMC, 30 min preincubation, room temperature
T3 sequence (P55212 24-179 limits assumed): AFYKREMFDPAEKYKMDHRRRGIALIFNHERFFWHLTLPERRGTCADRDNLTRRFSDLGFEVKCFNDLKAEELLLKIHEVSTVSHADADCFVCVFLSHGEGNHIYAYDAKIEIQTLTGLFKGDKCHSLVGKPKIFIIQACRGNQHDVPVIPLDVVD
T3 sequence (P55212 194-293 limits assumed): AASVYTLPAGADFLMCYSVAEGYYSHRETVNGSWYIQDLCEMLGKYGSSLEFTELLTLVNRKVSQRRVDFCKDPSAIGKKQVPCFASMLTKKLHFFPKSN
Protocol: as §1, §2, §3, §4, §5, §6

MCH-3 = target: T4, MCH-3 (Homo sapiens, UniProt P55210); assay: Fluorescence enzyme assay, IC50 determination, Mch3; format: biochemical; settings: substrate Acetyl-Asp-Glu-Val-Asp-AMC, 30 min preincubation, room temperature
T4 sequence (P55210 24-198 limits assumed): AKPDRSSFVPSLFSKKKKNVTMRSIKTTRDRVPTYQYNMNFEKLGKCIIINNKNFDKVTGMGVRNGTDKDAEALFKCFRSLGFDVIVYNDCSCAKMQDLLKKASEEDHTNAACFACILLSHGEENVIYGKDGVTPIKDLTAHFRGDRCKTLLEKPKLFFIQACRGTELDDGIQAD
T4 sequence (P55210 207-303 limits assumed): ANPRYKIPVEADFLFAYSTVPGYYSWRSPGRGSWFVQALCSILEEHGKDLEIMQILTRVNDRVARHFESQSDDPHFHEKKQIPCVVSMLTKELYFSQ
Protocol: as §1, §2, §3, §4, §5, §6

MCH-5 [4] = target: T5, MCH-5 (Homo sapiens, UniProt Q14790); assay: Fluorescence enzyme assay, IC50 determination, Mch5; format: biochemical; settings: substrate Acetyl-Asp-Glu-Val-Asp-AMC, 30 min preincubation, room temperature
T5 sequence (Q14790 217-374 limits assumed, species assumed): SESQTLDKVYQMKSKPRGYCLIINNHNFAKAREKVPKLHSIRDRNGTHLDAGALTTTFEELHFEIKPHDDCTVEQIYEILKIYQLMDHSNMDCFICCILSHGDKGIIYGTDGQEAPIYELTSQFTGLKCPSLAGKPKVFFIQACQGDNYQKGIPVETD
T5 sequence (Q14790 385-479 limits assumed, species assumed): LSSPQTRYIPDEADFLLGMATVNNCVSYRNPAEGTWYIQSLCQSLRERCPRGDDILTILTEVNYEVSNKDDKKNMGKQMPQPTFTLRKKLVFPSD
Protocol: as §1, §2, §3, §4, §5, §6

mICE [5] = target: T1, mICE; assay: Continuous assay for Ki and k3 of irreversible inhibitors, ICE; format: biochemical
Description: (§7) B. Determination of the dissociation constant Ki and irreversible rate constant k3 for irreversible inhibitors
(§8) For the irreversible inhibition of a ICE/ced-3 Family Protease enzyme with a competitive irreversible inhibitor; using the model represented by the following formulas: [drawing 14]
(§9) The product formation at time t may be expressed as: [formula]
(§10) where E, I, EI and E-I denote the active enzyme, inhibitor, non-covalent enzyme-inhibitor complex and covalent enzyme-inhibitor adduct, respectively. The Ki value is the overall dissociation constant of the reversible binding steps, and k3 is the irreversible rate constant. The [S] and Ks values are the substate concentration and dissociation constant of the substrate bound to the enzyme, respectively. [E]^T is the total enzyme concentration.
(§11) The above equations were used to determine the Ki and k3 values of a given inhibitor bound to a ICE/ced-3 family protease. Thus, a continuous assay was run for sixty minutes at various concentrations of the inhibitor and the substrate. The assay was formulated essentially the same as described above for generating the data in Table 1, except that the reaction was initiated by adding the enzyme to the substrate-inhibitor mixture. […]

CPP32 [6] = target: T2, CPP32; assay: Continuous assay for Ki and k3 of irreversible inhibitors, CPP32; format: biochemical
Description: as §7, §8, §9, §10, §11

MCH-2 [7] = target: T3, MCH-2; assay: Continuous assay for Ki and k3 of irreversible inhibitors, Mch2; format: biochemical
Description: as §7, §8, §9, §10, §11

MCH-5 [8] = target: T5, MCH-5; assay: Continuous assay for Ki and k3 of irreversible inhibitors, Mch5; format: biochemical
Description: as §7, §8, §9, §10, §11

[9] = continuous assay 60 min, reaction initiated by adding enzyme

| Compound | IC50 (mICE [1]) [µM] | IC50 (CPP32 [2]) [µM] | IC50 (MCH-2 [3]) [µM] | IC50 (MCH-3) [µM] | IC50 (MCH-5 [4]) [µM] | melting point | k3/Ki (mICE [5]; Example 31) [M⁻¹ s⁻¹] | Ki (mICE [5]; [9]) [µM] | k3/Ki (CPP32 [6]; Example 31) [M⁻¹ s⁻¹] | Ki (CPP32 [6]; [9]) [µM] | k3/Ki (MCH-2 [7]; Example 31) [M⁻¹ s⁻¹] | Ki (MCH-2 [7]; [9]) [µM] | k3/Ki (MCH-5 [8]; Example 31) [M⁻¹ s⁻¹] | Ki (MCH-5 [8]; [9]) [µM] |
| --- | --- | --- | --- | --- | --- | --- | --- | --- | --- | --- | --- | --- | --- | --- |
| O=C1CC(NC(=O)C2CCc3cccc4c3N2C(=O)C(NC(=O)OCc2ccccc2)CC4)C(O)O1 (mixture of isomers) [Example 28, (3R,S-cis)-6-Benzyloxycarbonylamino-5-oxo-2,3,4,5,6,7,8-hexahydro-1H-azepino[3,2,1-hi]quinoline-3-carbonyl)-amino]-4-oxo-butanoic acid] | 0.026 | 0.437 | 32 | 1.11 | 2.06 | 120 to 123 °C (dec.) |  |  |  |  |  |  |  |  |
| O=C1C[C@H](NC(=O)[C@@H]2Cc3cccc4c3N2C(=O)[C@@H](NC(=O)OCc2ccccc2)CC4)C(O)O1 (stereo partly drawn) [Example 3] | 0.019 | 1.03 | 40.1 | 6.96 | > 10 | 101 to 104 °C |  |  |  |  |  |  |  |  |
| CC(=O)N[C@@H](CC(=O)O)C(=O)N[C@H]1CCc2cccc3c2N(C1=O)[C@H](C(=O)N[C@H]1CC(=O)OC1O)C3 (stereo partly drawn) [Example 7] | 0.694 | 0.0014 | 6.47 | 0.145 | 2.09 | 160 to 175 °C (dec.) |  |  |  |  |  |  |  |  |
| O=C(O)CCC(=O)N[C@H]1CCc2cccc3c2N(C1=O)[C@H](C(=O)N[C@H]1CC(=O)OC1O)C3 (stereo partly drawn) [Example 10] | 0.571 | 0.245 | 1.81 | 2.83 | 7.98 | 145 to 160 °C (dec.) |  |  |  |  |  |  |  |  |
| O=C(O)C[C@H](NC(=O)OCc1ccccc1)C(=O)N[C@H]1CCc2cccc3c2N(C1=O)[C@H](C(=O)N[C@H]1CC(=O)OC1O)C3 (stereo partly drawn) [Example 13] | 0.096 | 0.00052 |  | 0.084 | 1.19 | 140 to 144 °C (dec.) |  |  |  |  |  |  |  |  |
| O=C(CCc1ccccc1)N[C@H]1CCc2cccc3c2N(C1=O)[C@H](C(=O)N[C@H]1CC(=O)OC1O)C3 (stereo partly drawn) [Example 16] | 0.045 | 0.78 | > 10 | 32.6 | 18.7 | 78 to 81 °C |  |  |  |  |  |  |  |  |
| CC(=O)N[C@H]1CCc2cccc3c2N(C1=O)[C@H](C(=O)N[C@H]1CC(=O)OC1O)C3 (stereo partly drawn) [Example 19] | 3.07 | 3.87 | > 10 | > 50 | > 50 | 210 to 215 °C (dec.) |  |  |  |  |  |  |  |  |
| CC(C)(C)OC(=O)C[C@@H](/C=N/NC(N)=O)NC(=O)[C@@H]1Cc2cccc3c2N1C(=O)[C@@H](NC(=O)c1cccc2ccccc12)CC3 [Example 20] |  |  |  |  |  | 103 to 105 °C (dec.) |  |  |  |  |  |  |  |  |
| O=C1C[C@H](NC(=O)[C@@H]2Cc3cccc4c3N2C(=O)[C@@H](NC(=O)c2cccc3ccccc23)CC4)C(O)O1 (stereo partly drawn) [Example 22] | 0.01 | 2.91 | > 50 | 12.3 | 1.09 | 202 to 203 °C (dec.) |  |  |  |  |  |  |  |  |
| O=C1C[C@H](NC(=O)[C@@H]2Cc3cccc4c3N2C(=O)[C@@H](NC(=O)c2ccccc2)CC4)C(O)O1 (stereo partly drawn) [Example 25] | 0.159 | 8.77 | > 50 | > 50 | 4.63 | 204 to 205 °C (dec.) |  |  |  |  |  |  |  |  |
| O=C(O)CC(NC(=O)[C@@H]1Cc2cccc3c2N1C(=O)[C@@H](NC(=O)OCc1ccccc1)CC3)C(=O)CF (stereo partly drawn) [Example 31] |  |  |  |  |  |  | 1.2e+07 | 0.0005 | 960000 | 0.012 | 25000 | 0.033 | 98000 | 0.022 |
| O=C(O)C[C@H](NC(=O)[C@@H]1Cc2cccc3c2N1C(=O)[C@@H](NC(=O)OCc1ccccc1)CC3)C(=O)COP(=O)(c1ccccc1)c1ccccc1 [Example 34, 3-[(2S-cis)-[5-Benzyloxycarbonylamino-1,2,3,4,5,6,7-hexahydro-4-oxoazapino[3,2,1-hi]indole-2-carbonyl]amino]5-(diphenylphosphinyl) oxy-4-oxo-pentanoic acid] |  |  |  |  |  | 109 to 111 °C (dec.) |  |  |  |  |  |  |  |  |

From US6444663B1, “Tricyclic compounds for the inhibition of the ICE/ced-3 protease family of enzymes” (Idun Pharmaceuticals, Inc., priority 1996, dated 2002)
